Patent US9447100B2, “Substituted pyrazolo[1,5-A] pyrimidines as calcium receptor modulating agents” (Takeda Pharmaceutical Company Limited, priority 2002, dated 2016)
Structures can show the parent of a compound that is named as a salt.

SMILES	melting point [°C]
Cc1nn2c(c1C(=O)OC1C(C)(C)[C@H]3CC[C@]1(C)C3)NC(c1ccccc1)CC2(C)C (stereo partly drawn) (as salt: HCl) [Example 1141, (1R,4S)-1,3,3-trimethylbicyclo[2.2.1]hept-2-yl 2,7,7-trimethyl-5-phenyl-4,5,6,7-tetrahydropyrazolo[1,5-a]pyrimidine-3-carboxylate]	149 to 150
CCC(CC)(NC(=O)c1cnn2c1NC(c1ccccc1)CC2C(F)(F)F)c1cccc(Br)c1 (stereo not drawn) [Example 398, N-(1-(3-bromophenyl)-1-ethylpropyl)-5-phenyl-7-(trifluoromethyl)-4,5,6,7-tetrahydropyrazolo[1,5-a]pyrimidine-3-carboxamide]	167 to 168
CCC(CC)(NC(=O)c1c(C)nn2c1NC(c1cccc(OC)c1)CC2(C)C)c1ccc(C)cc1 (stereo not drawn) (as salt: HCl) [Example 966, N-(1-ethyl-1-(4-methylphenyl)propyl)-5-(3-methoxyphenyl)-2,7,7-trimethyl-4,5,6,7-tetrahydropyrazolo[1,5-a]pyrimidine-3-carboxamide]	146
COc1cccc(C2CC(C(F)(F)F)n3ncc(C(=O)NC45CC6CC(CC(C6)C4)C5)c3N2)c1 (stereo not drawn) [Example 280, N-(1-adamantyl)-5-(3-methoxyphenyl)-7-(trifluoromethyl)-4,5,6,7-tetrahydropyrazolo[1,5-a]pyrimidine-3-carboxamide]	211 to 212
COc1ccccc1C1CC(C(F)(F)F)n2ncc(C(=O)NC34CC5CC(CC(C5)C3)C4)c2N1 (stereo not drawn) [Example 279, N-(1-adamantyl)-5-(2-methoxyphenyl)-7-(trifluoromethyl)-4,5,6,7-tetrahydropyrazolo[1,5-a]pyrimidine-3-carboxamide]	238 to 239
CCC(CC)(NC(=O)c1c(C)nn2c1N[C@H](c1ccccc1F)CC2(C)C)c1ccc(C)cc1 (as salt: HCl) [Example 1083, (5S)-N-(1-ethyl-1-(4-methylphenyl)propyl)-5-(2-fluorophenyl)-2,7,7-trimethyl-4,5,6,7-tetrahydropyrazolo[1,5-a]pyrimidine-3-carboxamide]	203 to 204
CCCC(CC)(CC)NC(=O)c1c(C)nn2c1NC(c1ccccc1F)CC2(C)C (stereo not drawn) (as salt: HCl) [Example 957, N-(1,1-diethylbutyl)-5-(2-fluorophenyl)-2,7,7-trimethyl-4,5,6,7-tetrahydropyrazolo[1,5-a]pyrimidine-3-carboxamide]	181 to 182
CCOC(=O)c1cnn2c1NC(c1ccco1)CC2C(F)(F)F (stereo not drawn) [Example 14, ethyl 5-(2-furyl)-7-(trifluoromethyl)-4,5,6,7-tetrahydropyrazolo[1,5-a]pyrimidine-3-carboxylate]	86
CCC(CC)(NC(=O)c1cnn2c1NC(c1ccccc1)CC2C(F)(F)F)c1ccc(Br)cc1 (stereo not drawn) [Example 397, N-(1-(4-bromophenyl)-1-ethylpropyl)-5-phenyl-7-(trifluoromethyl)-4,5,6,7-tetrahydropyrazolo[1,5-a]pyrimidine-3-carboxamide]	180 to 181
CCCC(CC)(CC)NC(=O)c1c(C)nn2c1NC(c1ccccc1)CC2(C)C (stereo not drawn) (as salt: HCl) [Example 838, N-(1,1-diethylbutyl)-2,7,7-trimethyl-5-phenyl-4,5,6,7-tetrahydropyrazolo[1,5-a]pyrimidine-3-carboxamide]	176 to 177
COc1ccccc1C1CC(C)(C)n2nc(C)c(C(=O)O)c2N1 (stereo not drawn) [Example 944, 5-(2-methoxyphenyl)-2,7,7-trimethyl-4,5,6,7-tetrahydropyrazolo[1,5-a]pyrimidine-3-carboxylic acid]	198 to 199
CCC(CC)(NC(=O)c1cnn2c1NC(c1ccc(F)cc1F)CC2(C)C)c1ccc(C(F)(F)F)cc1 (stereo not drawn) [Example 694, 5-(2,4-difluorophenyl)-N-(1-ethyl-1-(4-(trifluoro-methyl)phenyl)propyl)-7,7-dimethyl-4,5,6,7-tetrahydropyrazolo[1,5-a]pyrimidine-3-carboxamide]	198 to 199
CCC(CC)(NC(=O)c1c(C)nn2c1NC(c1cccs1)CC2(C)C)c1ccc(C)cc1 (stereo not drawn) (as salt: HCl) [Example 956, N-(1-ethyl-1-(4-methylphenyl)propyl)-2,7,7-trimethyl-5-(2-thienyl)-4,5,6,7-tetrahydropyrazolo[1,5-a]pyrimidine-3-carboxamide]	149 to 150

Continued, values first:

melting point [°C]	SMILES
160 to 161	CCC1(NC(=O)c2cnn3c2NC(c2ccccc2)CC3(C)C)CCC(C)CC1 (stereo not drawn) [Example 612, N-(1-ethyl-4-methylcyclohexyl)-7,7-dimethyl-5-phenyl-4,5,6,7-tetrahydropyrazolo[1,5-a]pyrimidine-3-carboxamide]
182 to 183	CC(C)(NC(=O)c1cnn2c1NC(c1ccccc1)CC2(C)C)c1ccc(C(F)(F)F)cc1 (stereo not drawn) [Example 427, 7,7-dimethyl-N-(1-methyl-1-(4-(trifluoromethyl)phenyl)ethyl)-5-phenyl-4,5,6,7-tetrahydropyrazolo[1,5-a]pyrimidine-3-carboxamide]
180 to 181	CC1(C)CC(c2ccccc2)Nc2c(C(=O)NC(c3ccc(Cl)cc3)c3ccc(Cl)cc3)cnn21 (stereo not drawn) [Example 405, N-(bis(4-chlorophenyl)methyl)-7,7-dimethyl-5-phenyl-4,5,6,7-tetrahydropyrazolo[1,5-a]pyrimidine-3-carboxamide]
178 to 179	CCC(CC)(NC(=O)c1cnn2c1NC(c1ccccc1)CC2(C)C)c1ccc(CO)cc1 (stereo not drawn) [Example 739, N-(1-ethyl-1-(4-(hydroxymethyl)phenyl)propyl)-7,7-dimethyl-5-phenyl-4,5,6,7-tetrahydropyrazolo[1,5-a]pyrimidine-3-carboxamide]
180 to 182	CCC(CC)(NC(=O)c1c(C)nn2c1N[C@@H](c1ccccc1)CC2(C)C)c1ccccc1F (as salt: HCl) [Example 1063, (5R)-N-(1-ethyl-1-(2-fluorophenyl)propyl)-2,7,7-trimethyl-5-phenyl-4,5,6,7-tetrahydropyrazolo[1,5-a]pyrimidine-3-carboxamide]
139 to 140	CCC(CC)(NC(=O)c1cnn2c1N[C@@H](c1ccccc1)CC2(C)C)c1ccc(C(C)(C)C)cc1 (as salt: HCl) [Example 1052, (5R)-N-(1-(4-tert-butylphenyl)-1-ethylpropyl)-7,7-dimethyl-5-phenyl-4,5,6,7-tetrahydropyrazolo[1,5-a]pyrimidine-3-carboxamide]
185 to 187	CCC(CC)(NC(=O)c1c(C)nn2c1NC(c1ccccc1)CC2(C)C)c1ccc(Br)cc1 (stereo not drawn) (as salt: HCl) [Example 738, N-(1-(4-bromophenyl)-1-ethylpropyl)-2,7,7-trimethyl-5-phenyl-4,5,6,7-tetrahydropyrazolo[1,5-a]pyrimidine-3-carboxamide]
156 to 157	CCC(CC)(Cc1ccc(Cl)cc1)NC(=O)c1cnn2c1NC(c1ccccc1)CC2(C)C (stereo not drawn) [Example 699, N-(1-(4-chlorobenzyl)-1-ethylpropyl)-7,7-dimethyl-5-phenyl-4,5,6,7-tetrahydropyrazolo[1,5-a]pyrimidine-3-carboxamide]
184 to 185	COc1ccc(C(NC(=O)c2cnn3c2NC(c2ccccc2)CC3(C)C)c2ccc(OC)cc2)cc1 (stereo not drawn) [Example 407, N-(bis(4-methoxyphenyl)methyl)-7,7-dimethyl-5-phenyl-4,5,6,7-tetrahydropyrazolo[1,5-a]pyrimidine-3-carboxamide]
113 to 114	CCCCC(CCCC)(NC(=O)c1cnn2c1NC(c1ccccc1)CC2(C)C)c1ccc(C(F)(F)F)cc1 (stereo not drawn) [Example 411, N-(1-butyl-1-(4-(trifluoromethyl)phenyl)pentyl)-7,7-dimethyl-5-phenyl-4,5,6,7-tetrahydropyrazolo[1,5-a]pyrimidine-3-carboxamide]
155 to 156	CCC1(NC(=O)c2cnn3c2NC(c2ccccc2)CC3(C)C)CCS(=O)(=O)CC1 (stereo not drawn) [Example 617, N-(4-ethyl-1,1-dioxidotetrahydro-2H-thiopyran-4-yl)-7,7-dimethyl-5-phenyl-4,5,6,7-tetrahydropyrazolo[1,5-a]pyrimidine-3-carboxamide]
158 to 159	CCC(CC)(NC(=O)c1cnn2c1NC(c1ccccc1OC)CC2(C)C)c1ccc(C)cc1 (stereo not drawn) (as salt: HCl) [Example 964, N-[1-ethyl-1-(4-methylphenyl)propyl]-5-(2-methoxyphenyl)-7,7-dimethyl-4,5,6,7-tetrahydropyrazolo[1,5-a]pyrimidine-3-carboxamide]
152 to 153	CCCC1(NC(=O)c2cnn3c2NC(c2ccccc2)CC3(C)C)CCCCC1 (stereo not drawn) [Example 619, 7,7-dimethyl-5-phenyl-N-(1-propylcyclohexyl)-4,5,6,7-tetrahydropyrazolo[1,5-a]pyrimidine-3-carboxamide]
196 to 197	CCC(CC)(NC(=O)c1cnn2c1NC(c1ccccc1)CC2(C)C)c1ccc(C(C)(C)C)cc1 (stereo not drawn) [Example 417, N-(1-(4-tert-butylphenyl)-1-ethylpropyl)-7,7-dimethyl-5-phenyl-4,5,6,7-tetrahydropyrazolo[1,5-a]pyrimidine-3-carboxamide]
147 to 148	CCC(CC)(NC(=O)c1cnn2c1NC(c1ccccc1)CC2(C)C)c1ccc(CCC(=O)OC)cc1 (stereo not drawn) [Example 748, methyl 3-(4-(1-(((7,7-dimethyl-5-phenyl-4,5,6,7-tetrahydropyrazolo[1,5-a]pyrimidin-3-yl)carbonyl)amino)-1-ethyl-propyl)phenyl)propanoate]
152 to 153	CCOC(=O)c1ccc(C(CC)(CC)NC(=O)c2c(C)nn3c2NC(c2ccccc2)CC3(C)C)cc1 (stereo not drawn) [Example 954, ethyl 4-(1-ethyl-1-(((2,7,7-trimethyl-5-phenyl-4,5,6,7-tetrahydropyrazolo[1,5-a]pyrimidin-3-yl)carbonyl)amino)propyl) benzoate]
140 to 141	CC1(C)CC(c2ccccc2)Nc2c(C(=O)NC3(C(N)=O)CCCCC3)cnn21 (stereo not drawn) [Example 626, N-(1-(aminocarbonyl)cyclohexyl)-7,7-dimethyl-5-phenyl-4,5,6,7-tetrahydropyrazolo[1,5-a]pyrimidine-3-carboxamide]
